Assay results from patent US20110144012A1, “SHORTENED GLUCAGON-LIKE PEPTIDE 1(SGLP-1) PREPARATION METHOD AND APPLICATION” (Dalian D.N. Bio-Engineering Co., Ltd., priority 2005, published 2011).

Experiments:
[1] = in comparison with GLP-1; cited from earlier work
[2] = in comparison with GLP-1; U.S. Pat. No. 5,424,286; cited from earlier work
[3] = system: GK diabetes mellitus rats; experiment: Blood glucose-lowering effect experiment in GK diabetes mellitus rats (fasting blood glucose level); format: in vivo; conditions: injected 0.1 mg/time, twice a day for two weeks, fasted overnight
Description: Material and Method • GK diabetes mellitus rats (Provided by Shanghai Laboratory Animal Center, Chinese Academy of Sciences)
sGLP-1 sequence is as follows:
• The above eight polypeptides with different sequence is mixed with 0.9% NaCl solution to prepare 1 mg/ml solution, which is standby. • The rats are grouped at random, and fast overnight. Use graduated capillaries (treated with heparin before injection) to sample 20 microliters of blood from their orbital sinuses, add 300 microliters of normal saline to the blood and mix well, centrifuge it at 3000 rpm to remove erythrocyte, and use blood serum for fasting blood glucose level determination. Inject each group of rats with different polypeptides, and use normal saline as Control N. All the rats are injected at 0.1 mg/time, twice a day for two weeks. They must fast overnight, and be sampled according to the above method for fasting blood glucose level determination. […] No. 1 sequence is full-length GLP-1 sequence, in which the second amino acid is changed from A to G, as Control P; No. 2 to No. 5 are the reconstructed sequences with different shortened length.

NOD mice [4] = experiment: Insulinotropic hormone secretion effect of sGLP-1 (serum insulin, radio immunity kit); format: in vivo; conditions: fasting NOD mice, 10 microgram injected
Description: Experimental Material and Method: • NOD mice (Provided by Shanghai Laboratory Animal Center, Chinese Academy of Sciences) • 0.9% NaCl solution, pure sGLP-1 product (prepared in Example 1), pure GLP-1 product, and radio immunity insulin determination reagent kit (Made by Shanghai Institute of Biological Products (SIBP), Ministry of Health P.R.China.) NOD mice are divided into three groups. Use graduated capillary (wash the inner walls of the capillaries with 1 mg/mL heparin and dry the capillaries) to sample 50 microliters of blood from their orbital sinuses first, and inject the three groups of fasting mice with 10 microgram of sGLP-1, 10 microgram of GLP-1 and 200 microliters of normal saline, and regard this time as zero. Repeat the above operation at 5, 10, 20 and 30 minutes after that respectively. Place all the blood samples in a centrifuge tube with 50 microliters of normal saline in it, mix the blood samples and saline well, centrifuge the mixture at 3000 rpm to remove erythrocyte, and determinate insulin level of blood serum according to the method in this radio immunity reagent kit to check insulinotropic hormone secretion effect of sGLP-1. • The experiment result is shown in Table 2.

Healthy C57/BL mice = experiment: C peptide secretion promotion effect of sGLP-1 (serum C peptide, radio immunity kit); format: in vivo; conditions: fasting healthy C57/BL mice, 10 microgram injected
Description: Experiment Material and Method: • Healthy C57/BL mice (Provided by Shanghai Laboratory Animal Center, Chinese Academy of Sciences) • 0.9% NaCl solution, pure sGLP-1 product (Prepared in Example 1), pure GLP-1 product. • Radio immunity C-peptide determination reagent kit (Made by Shanghai Institute of Biological Products (SIBP), Ministry of Health P.R.China.) • Healthy C57/BL mice are divided into three groups. Use graduated capillary (wash the inner walls of the capillaries with 1 mg/mL heparin and dry the capillaries) to sample 50 microliters of blood from their orbital sinuses first, and inject the three groups of fasting mice with 10 microgram of sGLP-1, 10 microgram of GLP-1 and 200 microliters of normal saline, and regard this time as zero. Repeat the above operation at 5, 10, 20 and 30 minutes after that respectively. Place all the blood samples in a centrifuge tube with 50 microliters of normal saline in it, mix the blood samples and saline well, centrifuge the mixture at 3000 rpm to remove erythrocyte, and determinate C peptide level of blood serum according to the method in this radio immunity reagent kit to check C peptide secretion promotion effect of sGLP-1. • The experiment result is shown in Table 3.

NOD mice [5] = experiment: Blood glucose-lowering effect on NOD mice (glucose injection); format: in vivo; conditions: for blood glucose level, 0 minutes after administration / blood glucose level, 5 minutes after administration / blood glucose level, 10 minutes after administration / blood glucose level, 20 minutes after administration: NOD mice fasted overnight, 200 microliters 40% glucose + 10 microgram peptide; for blood glucose-lowering effect (in words): NOD mice, glucose injection + 10 microgram peptide
Description: Experimental Material and Method: • NOD mice (Provided by Shanghai Laboratory Animal Center, Chinese Academy of Sciences) fasting overnight. • 40% glucose, 0.9% NaCl solution, pure sGLP-1 product (Prepared in Example 1), pure GLP-1 product, reagent kit for blood glucose level determination (Made by Shanghai Institute of Biological Products (SIBP), Ministry of Health P.R.China.) NOD mice fast overnight, and are divided into three groups. Fasting Group 1 is injected with 200 microliters of 40% glucose and 10 microgram of sGLP-1; Fasting Group 2 is injected with 200 microliters of 40% glucose and 10 microgram of GLP-1; Group 3, a control group, is injected with only glucose. Immediately use graduated capillaries (treated with heparin before injection) to sample 20 microliters of blood from their orbital sinuses, add 300 microliters of normal saline to the blood and mix well, centrifuge it at 3000 rpm to remove erythrocyte, and use blood serum for fasting blood glucose level determination. […] The blood serum of the three groups is determined on blood glucose level according to the method in the reagent kit in order to check the blood glucose-lowering effect of each group.

Row | Substance | blood glucose-lowering effect (fasting blood glucose level) [3] | insulin level, 0 minutes after administration (NOD mice [4]) | insulin level, 5 minutes after administration (NOD mice [4]) | insulin level, 10 minutes after administration (NOD mice [4]) | insulin level, 20 minutes after administration (NOD mice [4]) | insulin level, 30 minutes after administration (NOD mice [4]) | c peptide level, 0 minutes after administration (Healthy C57/BL mice) [pmol/mL] | c peptide level, 5 minutes after administration (Healthy C57/BL mice) [pmol/mL] | c peptide level, 10 minutes after administration (Healthy C57/BL mice) [pmol/mL] | c peptide level, 20 minutes after administration (Healthy C57/BL mice) [pmol/mL] | c peptide level, 30 minutes after administration (Healthy C57/BL mice) [pmol/mL] | blood glucose level, 0 minutes after administration (NOD mice [5]) [mmol/L] | blood glucose level, 5 minutes after administration (NOD mice [5]) [mmol/L] | blood glucose level, 10 minutes after administration (NOD mice [5]) [mmol/L] | blood glucose level, 20 minutes after administration (NOD mice [5]) [mmol/L] | blood glucose-lowering effect (in words) (NOD mice [5]) | other results
1 | Exendin 4 |  |  |  |  |  |  |  |  |  |  |  |  |  |  |  |  | half time in human body (in words) [1]: longer half time in human body; concentration required for insulin secretion action (in words) [2]: lower
2 | HSEGTFTSDVSSYLEGQAAKEFIAWL [No. 3, shortened glucagon-like peptide 1 of 26 amino acids, X1 is Ser] | blood glucose-lowering effect prominently exceeding No. 1 |  |  |  |  |  |  |  |  |  |  |  |  |  |  |  | 
3 | His-Ala-Glu-Gly-Thr-Phe-Thr-Ser-Asp-Val-Ser-Ser-Tyr-Leu-Glu-Gly-Gln-Ala-Ala-Lys-Glu-Phe-Ile-Ala-Trp-Leu-Val-Lys-Gly-Arg [GLP-1] |  | 3.11 10^−6 international unit | 9.76 10^−6 international unit | 10.63 10^−6 international unit | 11.23 10^−6 international unit | 6.27 10^−6 international unit | 0.07 | 0.08 | 0.15 | 0.11 | 0.09 | 4.11 | 5.12 | 4.87 | 4.03 | have blood glucose-lowering effect | 
4 | HGEGTFTSDVSSYLEGQAAKEFIAWL [No. 2, shortened glucagon-like peptide 1 of 26 amino acids, X1 is Gly] | blood glucose-lowering effect prominently exceeding No. 1 | 2.88 10^−6 international unit | 10.56 10^−6 international unit | 19.88 10^−6 international unit | 24.67 10^−6 international unit | 16.45 10^−6 international unit | 0.07 | 0.08 | 0.20 | 0.16 | 0.15 | 4.08 | 4.34 | 4.28 | 3.98 | have blood glucose-lowering effect | blood glucose-lowering effect (fasting blood glucose level) ([3]; listed as sGLP-1): better blood glucose-lowering effect than GLP-1 and its reconstructed sequence; insulin secretion promotion (in words) (NOD mice [4]): can prominently promote insulin secretion; insulin generation stimulation capacity compared with GLP-1 (in words) (NOD mice [4]; short-time versus medium and long-term): the same short-time insulin generation stimulation capacity as GLP-1 and the medium and long-term insulin generation stimulation capacity stronger than GLP-1; c peptide secretion promotion (in words) (Healthy C57/BL mice): can prominently promote c peptide secretion; c peptide secretion promotion capacity compared with GLP-1 (in words) (Healthy C57/BL mice): c peptide secretion promotion capacity exceeding GLP-1
